Measurements as given in the kinase profiling compilation of Christmann-Franck et al. (2016).

Experiments:
Assay in all cases: radiometric filter-binding kinase assay
[1] = tested on: ROCK2 (rat); details: accession and sequence are those of the human protein
[2] = biological target: TAOK1 (human) (UniProt Q7L7X3); details: compound 10.0 µM
[3] = biological target: TBK1 (human) (UniProt Q9UHD2); details: compound 10.0 µM
[4] = biological target: MAPK8 (human) (UniProt P45983)
[5] = biological target: YES1 (human) (UniProt P07947); details: compound 10.0 µM
[6] = biological target: MINK1 (human) (UniProt Q8N4C8); details: compound 10.0 µM
[7] = biological target: DYRK1A (human) (UniProt Q13627)
[8] = biological target: HIPK1 (human) (UniProt Q86Z02); details: compound 10.0 µM
[9] = biological target: PIM3 (human) (UniProt Q86V86); details: compound 10.0 µM
[10] = biological target: GCK (human) (UniProt Q12851); details: compound 10.0 µM
[11] = biological target: MARK3 (human) (UniProt P27448); details: compound 10.0 µM
[12] = biological target: HIPK2 (human) (UniProt Q9H2X6); details: compound 10.0 µM
[13] = tested on: PAK2 (human), Q13177 [T402E]; details: compound 10.0 µM
[14] = biological target: MAPK10 (human) (UniProt P53779); details: compound 10.0 µM
[15] = biological target: AURKB (human) (UniProt Q96GD4); details: compound 10.0 µM
Chain of AURKB (human) (Q96GD4 whole entry, looked up): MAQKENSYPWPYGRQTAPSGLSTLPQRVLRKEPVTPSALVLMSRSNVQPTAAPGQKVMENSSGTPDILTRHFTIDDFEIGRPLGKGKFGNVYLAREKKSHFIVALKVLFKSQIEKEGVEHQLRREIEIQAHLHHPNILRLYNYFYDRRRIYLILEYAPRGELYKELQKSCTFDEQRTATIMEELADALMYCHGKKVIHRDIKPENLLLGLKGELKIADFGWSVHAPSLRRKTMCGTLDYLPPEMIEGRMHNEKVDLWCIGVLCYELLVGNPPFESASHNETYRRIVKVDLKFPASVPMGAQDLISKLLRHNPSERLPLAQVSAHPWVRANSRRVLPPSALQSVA

[16] = biological target: FGFR1 (human) (UniProt P11362); details: compound 10.0 µM
[17] = biological target: CAMKK2 (human) (UniProt Q96RR4); details: compound 10.0 µM
Chain of CAMKK2 (human) (Q96RR4 whole entry, looked up): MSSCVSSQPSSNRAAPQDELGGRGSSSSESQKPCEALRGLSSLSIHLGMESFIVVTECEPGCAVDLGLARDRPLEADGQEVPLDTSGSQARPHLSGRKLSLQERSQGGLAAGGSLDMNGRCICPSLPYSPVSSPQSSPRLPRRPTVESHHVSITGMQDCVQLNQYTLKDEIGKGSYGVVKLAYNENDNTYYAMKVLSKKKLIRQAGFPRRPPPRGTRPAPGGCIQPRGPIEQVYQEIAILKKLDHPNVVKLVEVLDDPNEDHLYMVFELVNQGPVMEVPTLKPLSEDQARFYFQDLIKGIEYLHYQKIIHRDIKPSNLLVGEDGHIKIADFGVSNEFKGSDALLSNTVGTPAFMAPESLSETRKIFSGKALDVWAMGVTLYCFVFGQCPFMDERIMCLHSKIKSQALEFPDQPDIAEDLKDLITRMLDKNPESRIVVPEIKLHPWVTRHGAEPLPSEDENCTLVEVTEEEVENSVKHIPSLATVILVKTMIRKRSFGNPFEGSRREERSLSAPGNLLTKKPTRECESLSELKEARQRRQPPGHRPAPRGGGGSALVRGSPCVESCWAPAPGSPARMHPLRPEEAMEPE

[18] = biological target: DYRK3 (human) (UniProt O43781); details: compound 10.0 µM
[19] = biological target: JAK2 JH1 JH2 (human) (UniProt O60674); details: compound 10.0 µM
[20] = biological target: PHKG1 (human) (UniProt Q16816)
Chain of PHKG1 (human) (Q16816 whole entry, looked up): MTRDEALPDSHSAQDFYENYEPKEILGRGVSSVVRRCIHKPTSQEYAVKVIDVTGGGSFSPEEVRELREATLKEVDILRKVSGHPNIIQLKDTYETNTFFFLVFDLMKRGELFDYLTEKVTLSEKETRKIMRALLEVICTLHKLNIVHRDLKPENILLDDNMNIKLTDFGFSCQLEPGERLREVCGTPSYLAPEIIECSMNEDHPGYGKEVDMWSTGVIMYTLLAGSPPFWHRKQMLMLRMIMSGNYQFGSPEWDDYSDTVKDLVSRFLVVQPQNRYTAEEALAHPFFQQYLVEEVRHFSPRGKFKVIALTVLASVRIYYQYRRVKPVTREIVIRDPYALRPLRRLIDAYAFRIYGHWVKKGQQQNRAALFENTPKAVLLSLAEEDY

[21] = biological target: CSNK2A1 (human) (UniProt P68400)
Chain of CSNK2A1 (human) (P68400 whole entry, looked up): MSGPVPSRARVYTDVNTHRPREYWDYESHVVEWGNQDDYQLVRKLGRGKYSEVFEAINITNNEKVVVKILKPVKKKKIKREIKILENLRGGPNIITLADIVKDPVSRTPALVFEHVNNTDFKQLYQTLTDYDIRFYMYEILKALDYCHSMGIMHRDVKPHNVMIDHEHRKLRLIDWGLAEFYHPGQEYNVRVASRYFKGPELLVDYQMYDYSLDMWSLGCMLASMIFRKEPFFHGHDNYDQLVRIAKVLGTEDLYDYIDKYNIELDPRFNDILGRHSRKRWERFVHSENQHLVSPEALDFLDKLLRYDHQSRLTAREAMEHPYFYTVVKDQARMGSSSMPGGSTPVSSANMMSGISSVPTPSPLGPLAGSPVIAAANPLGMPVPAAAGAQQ

[22] = biological target: SRPK1 (human) (UniProt Q96SB4); details: compound 10.0 µM
[23] = biological target: EPHB2 (human) (UniProt P29323); details: compound 10.0 µM
[24] = biological target: DAPK1 (human) (UniProt P53355); details: compound 10.0 µM
[25] = biological target: STK3 (human) (UniProt Q13188); details: compound 10.0 µM
Chain of STK3 (human) (Q13188 whole entry, looked up): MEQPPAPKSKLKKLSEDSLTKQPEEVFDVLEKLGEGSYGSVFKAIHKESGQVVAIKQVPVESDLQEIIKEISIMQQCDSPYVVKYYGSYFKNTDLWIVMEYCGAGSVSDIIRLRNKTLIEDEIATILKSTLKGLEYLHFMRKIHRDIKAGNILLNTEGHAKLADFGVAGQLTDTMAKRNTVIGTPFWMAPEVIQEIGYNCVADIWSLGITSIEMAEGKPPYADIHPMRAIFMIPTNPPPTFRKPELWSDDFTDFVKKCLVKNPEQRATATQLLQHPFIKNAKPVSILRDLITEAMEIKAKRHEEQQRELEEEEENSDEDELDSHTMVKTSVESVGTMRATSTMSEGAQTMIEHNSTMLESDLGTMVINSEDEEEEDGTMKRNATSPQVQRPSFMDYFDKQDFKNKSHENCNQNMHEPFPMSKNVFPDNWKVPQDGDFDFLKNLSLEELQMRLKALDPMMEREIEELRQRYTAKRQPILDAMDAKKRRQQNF

[26] = tested on: LCK (mouse); details: accession and sequence are those of the human protein
[27] = biological target: MKNK1 (human) (UniProt Q9BUB5); details: compound 10.0 µM
[28] = biological target: IGF1R (human) (UniProt P08069); details: compound 10.0 µM
[29] = biological target: MAPK11 (human) (UniProt Q15759)
Chain of MAPK11 (human) (Q15759 whole entry, looked up): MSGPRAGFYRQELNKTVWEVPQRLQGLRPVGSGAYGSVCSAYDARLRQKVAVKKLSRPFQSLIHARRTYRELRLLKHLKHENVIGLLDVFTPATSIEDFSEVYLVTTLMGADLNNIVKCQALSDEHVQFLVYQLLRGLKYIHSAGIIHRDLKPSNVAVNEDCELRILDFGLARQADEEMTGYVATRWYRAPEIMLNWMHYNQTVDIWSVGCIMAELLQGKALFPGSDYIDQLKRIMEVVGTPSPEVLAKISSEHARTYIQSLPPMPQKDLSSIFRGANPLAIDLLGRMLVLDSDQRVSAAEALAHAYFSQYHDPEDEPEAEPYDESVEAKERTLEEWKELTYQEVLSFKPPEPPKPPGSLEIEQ

[30] = biological target: CHEK1 (human) (UniProt O14757)
Chain of CHEK1 (human) (O14757 whole entry, looked up): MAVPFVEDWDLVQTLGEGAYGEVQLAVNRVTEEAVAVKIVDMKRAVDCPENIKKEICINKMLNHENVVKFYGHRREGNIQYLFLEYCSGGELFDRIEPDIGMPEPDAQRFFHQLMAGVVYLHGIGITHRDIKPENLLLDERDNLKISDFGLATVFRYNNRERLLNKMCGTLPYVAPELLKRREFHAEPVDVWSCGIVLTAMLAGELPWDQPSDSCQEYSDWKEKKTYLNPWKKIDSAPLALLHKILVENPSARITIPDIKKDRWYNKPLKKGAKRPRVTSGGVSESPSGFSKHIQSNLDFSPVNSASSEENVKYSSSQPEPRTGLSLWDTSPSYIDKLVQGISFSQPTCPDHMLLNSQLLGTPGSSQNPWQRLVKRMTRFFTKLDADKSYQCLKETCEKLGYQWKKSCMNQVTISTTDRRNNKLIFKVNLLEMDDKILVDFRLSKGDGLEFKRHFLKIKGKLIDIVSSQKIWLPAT

[31] = biological target: CaMK1 (human) (UniProt Q14012); details: compound 10.0 µM
[32] = biological target: CLK2 (human) (UniProt P49760); details: compound 10.0 µM
[33] = biological target: MAPKAPK5 (human) (UniProt Q8IW41)
Chain of MAPKAPK5 (human) (Q8IW41 whole entry, looked up): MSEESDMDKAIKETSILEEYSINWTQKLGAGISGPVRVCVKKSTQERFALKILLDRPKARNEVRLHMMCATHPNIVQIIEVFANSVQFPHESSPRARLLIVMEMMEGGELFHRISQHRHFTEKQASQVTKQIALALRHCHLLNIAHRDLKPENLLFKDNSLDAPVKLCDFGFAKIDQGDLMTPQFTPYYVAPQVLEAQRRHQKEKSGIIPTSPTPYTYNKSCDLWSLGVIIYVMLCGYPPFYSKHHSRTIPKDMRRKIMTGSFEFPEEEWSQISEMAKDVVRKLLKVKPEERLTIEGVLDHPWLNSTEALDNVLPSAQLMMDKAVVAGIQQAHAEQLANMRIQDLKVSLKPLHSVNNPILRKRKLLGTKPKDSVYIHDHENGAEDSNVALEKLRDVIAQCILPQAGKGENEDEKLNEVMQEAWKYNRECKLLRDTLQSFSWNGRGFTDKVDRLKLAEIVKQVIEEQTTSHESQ

[34] = biological target: BRSK2 (human) (UniProt Q8IWQ3); details: compound 10.0 µM
[35] = biological target: MAPK13 (human) (UniProt O15264)
Chain of MAPK13 (human) (O15264 whole entry, looked up): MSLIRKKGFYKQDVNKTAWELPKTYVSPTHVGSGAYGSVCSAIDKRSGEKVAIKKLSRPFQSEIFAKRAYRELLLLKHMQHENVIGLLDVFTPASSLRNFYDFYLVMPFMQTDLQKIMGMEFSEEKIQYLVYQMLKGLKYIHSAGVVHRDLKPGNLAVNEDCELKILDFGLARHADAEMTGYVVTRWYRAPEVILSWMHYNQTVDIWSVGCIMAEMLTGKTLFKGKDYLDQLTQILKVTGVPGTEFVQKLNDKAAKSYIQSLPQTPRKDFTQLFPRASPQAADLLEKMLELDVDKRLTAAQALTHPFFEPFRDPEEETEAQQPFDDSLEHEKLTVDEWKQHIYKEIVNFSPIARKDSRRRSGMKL

[36] = tested on: SGK1 (human), O00141 [S422D]
Chain of SGK1 (human), O00141 [S422D] (O00141 whole entry S422D, looked up): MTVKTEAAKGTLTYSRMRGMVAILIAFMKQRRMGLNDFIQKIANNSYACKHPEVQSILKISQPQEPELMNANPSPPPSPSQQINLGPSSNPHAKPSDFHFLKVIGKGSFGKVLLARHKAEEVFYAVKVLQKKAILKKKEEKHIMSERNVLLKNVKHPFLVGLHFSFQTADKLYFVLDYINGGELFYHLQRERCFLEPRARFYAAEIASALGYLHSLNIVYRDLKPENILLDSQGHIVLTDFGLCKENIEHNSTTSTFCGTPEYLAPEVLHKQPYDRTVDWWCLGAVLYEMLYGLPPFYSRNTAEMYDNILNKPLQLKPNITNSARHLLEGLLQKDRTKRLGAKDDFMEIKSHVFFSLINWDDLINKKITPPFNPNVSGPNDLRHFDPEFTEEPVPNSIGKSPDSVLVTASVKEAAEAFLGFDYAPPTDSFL

Chain of MAPK8 (human) (P45983 whole entry, looked up): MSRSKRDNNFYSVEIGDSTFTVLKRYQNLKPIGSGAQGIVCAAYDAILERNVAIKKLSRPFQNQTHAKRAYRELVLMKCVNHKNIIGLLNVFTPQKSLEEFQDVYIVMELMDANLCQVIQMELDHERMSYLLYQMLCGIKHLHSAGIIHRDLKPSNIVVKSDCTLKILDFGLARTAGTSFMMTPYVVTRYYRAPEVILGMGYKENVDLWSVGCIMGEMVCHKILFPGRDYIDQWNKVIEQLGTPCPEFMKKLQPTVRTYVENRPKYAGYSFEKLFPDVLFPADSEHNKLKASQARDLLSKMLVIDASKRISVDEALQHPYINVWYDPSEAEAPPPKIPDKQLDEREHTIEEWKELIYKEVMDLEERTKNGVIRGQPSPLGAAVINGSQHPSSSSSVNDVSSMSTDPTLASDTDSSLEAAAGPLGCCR

## Cc1ccc2c(c1)C(=O)[C@@]1(O)CCN(c3ccccc3)C1=N2
[1]; compound 10.0 µM
  residual activity: 77%
[1]; compound 100.0 µM
  residual activity: 76%
[2]
  residual activity: 82%
[3]
  residual activity: 94%
[4]; compound 10.0 µM
  residual activity: 92%
[4]; compound 100.0 µM
  residual activity: 78%
[5]
  residual activity: 96%
[6]
  residual activity: 72%
[7]; compound 10.0 µM
  residual activity: 97%
[7]; compound 100.0 µM
  residual activity: 90%
[8]
  residual activity: 88%
[9]
  residual activity: 83%
[10]
  residual activity: 97%
[11]
  residual activity: 91%
[12]
  residual activity: 98%
[13]
  residual activity: 87%
[14]
  residual activity: 99%
[15]
  residual activity: 88%
[16]
  residual activity: 118%
[17]
  residual activity: 90%
[18]
  residual activity: 99%
[19]
  residual activity: 101%
[20]; compound 10.0 µM
  residual activity: 114%
[20]; compound 100.0 µM
  residual activity: 86%
[21]; compound 10.0 µM
  residual activity: 110%
[21]; compound 100.0 µM
  residual activity: 101%
[22]
  residual activity: 88%
[23]
  residual activity: 116%
[24]
  residual activity: 93%
[25]
  residual activity: 104%
[26]; compound 10.0 µM
  residual activity: 106%
[26]; compound 100.0 µM
  residual activity: 72%
[27]
  residual activity: 97%
[28]
  residual activity: 88%
[29]; compound 10.0 µM
  residual activity: 82%
[29]; compound 100.0 µM
  residual activity: 71%
[30]; compound 10.0 µM
  residual activity: 90%
[30]; compound 100.0 µM
  residual activity: 96%
[31]
  residual activity: 74%
[32]
  residual activity: 87%
[33]; compound 10.0 µM
  residual activity: 82%
[33]; compound 100.0 µM
  residual activity: 64%
[34]
  residual activity: 98%
[35]; compound 10.0 µM
  residual activity: 81%
[35]; compound 100.0 µM
  residual activity: 116%
[36]; compound 10.0 µM
  residual activity: 101%
[36]; compound 100.0 µM
  residual activity: 60%
